Source: patent US8772307B2, “Substituted spiro compounds and their use for producing pain-relief medicaments” (Gruenenthal GmbH, priority 2005, dated 2014)

Experiments:
[1] = biological target: T1, rat-species vanilloid receptor 1 (VR1/TRPV1) (Rattus norvegicus, UniProt O35433); test: Functional testing on vanilloid receptor 1 (VR1/TRPV1): FLIPR Ca2+ inflow assay in rat dorsal root ganglia cells (% activation / % inhibition vs capsaicin); type: cell-based; details: for inhibition at 10 µM: inhibition compared to 10 μM CP (capsaicin); for activation at 10 µM: stimulation compared to 10 μM CP (capsaicin); for IC50: capsaicin (CAP) stimulus, average
T1 construct: endogenous in cells; host or cells: primary cells dissociated from rat dorsal root ganglia (DRG)
T1 sequence (O35433 whole entry): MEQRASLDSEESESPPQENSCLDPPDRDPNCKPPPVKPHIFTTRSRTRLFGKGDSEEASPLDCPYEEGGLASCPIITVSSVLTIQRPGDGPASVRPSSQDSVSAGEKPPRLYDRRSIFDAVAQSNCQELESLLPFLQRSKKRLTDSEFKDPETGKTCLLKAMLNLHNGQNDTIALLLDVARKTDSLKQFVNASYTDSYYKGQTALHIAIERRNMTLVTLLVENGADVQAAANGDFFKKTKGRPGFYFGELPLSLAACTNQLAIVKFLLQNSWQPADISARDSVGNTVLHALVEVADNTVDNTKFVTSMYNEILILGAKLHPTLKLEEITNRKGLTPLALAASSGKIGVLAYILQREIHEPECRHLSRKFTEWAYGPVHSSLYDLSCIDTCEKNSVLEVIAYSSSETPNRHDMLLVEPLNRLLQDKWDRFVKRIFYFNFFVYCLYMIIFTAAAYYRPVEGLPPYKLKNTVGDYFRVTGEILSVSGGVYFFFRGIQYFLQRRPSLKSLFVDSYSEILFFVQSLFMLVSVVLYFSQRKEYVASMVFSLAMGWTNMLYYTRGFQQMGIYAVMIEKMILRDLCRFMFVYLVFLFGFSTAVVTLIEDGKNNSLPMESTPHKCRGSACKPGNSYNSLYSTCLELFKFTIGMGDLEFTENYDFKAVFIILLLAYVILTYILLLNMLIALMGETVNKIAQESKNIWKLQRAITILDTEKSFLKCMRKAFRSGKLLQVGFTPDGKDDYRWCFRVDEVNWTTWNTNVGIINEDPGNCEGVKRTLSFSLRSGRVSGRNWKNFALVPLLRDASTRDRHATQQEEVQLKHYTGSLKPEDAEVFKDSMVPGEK
Outline: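 Rat dorsal root ganglion cells, dissociated with collagenase and trypsin, were plated at 3×10^5/mL on laminin-coated plates in NGF-containing HAMS F12 and cultured 2-3 days at 37° C. Ca2+ inflow read by Fluo-4 fluorescence on FLIPR; test compounds at 10 μM referenced to 10 μM capsaicin.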

vanilloid receptor (VR1) = biological target: T2, vanilloid receptor (VR1) (Homo sapiens, UniProt Q8NER1); test: Functional testing on vanilloid receptor (VR1): FLIPR Ca2+ inflow assay in CHO K1 cells stably transfected with the VR1 gene; type: cell-based; details: for inhibition at 10 µM: CHO-K1, inhibition compared to 10 μM CP (capsaicin); for activation at 10 µM: CHO-K1, stimulation compared to 10 μM CP (capsaicin)
T2 construct: expressed in transfected cells; host or cells: CHO K1 cells (ECACC), stably transfected
T2 sequence (Q8NER1 whole entry): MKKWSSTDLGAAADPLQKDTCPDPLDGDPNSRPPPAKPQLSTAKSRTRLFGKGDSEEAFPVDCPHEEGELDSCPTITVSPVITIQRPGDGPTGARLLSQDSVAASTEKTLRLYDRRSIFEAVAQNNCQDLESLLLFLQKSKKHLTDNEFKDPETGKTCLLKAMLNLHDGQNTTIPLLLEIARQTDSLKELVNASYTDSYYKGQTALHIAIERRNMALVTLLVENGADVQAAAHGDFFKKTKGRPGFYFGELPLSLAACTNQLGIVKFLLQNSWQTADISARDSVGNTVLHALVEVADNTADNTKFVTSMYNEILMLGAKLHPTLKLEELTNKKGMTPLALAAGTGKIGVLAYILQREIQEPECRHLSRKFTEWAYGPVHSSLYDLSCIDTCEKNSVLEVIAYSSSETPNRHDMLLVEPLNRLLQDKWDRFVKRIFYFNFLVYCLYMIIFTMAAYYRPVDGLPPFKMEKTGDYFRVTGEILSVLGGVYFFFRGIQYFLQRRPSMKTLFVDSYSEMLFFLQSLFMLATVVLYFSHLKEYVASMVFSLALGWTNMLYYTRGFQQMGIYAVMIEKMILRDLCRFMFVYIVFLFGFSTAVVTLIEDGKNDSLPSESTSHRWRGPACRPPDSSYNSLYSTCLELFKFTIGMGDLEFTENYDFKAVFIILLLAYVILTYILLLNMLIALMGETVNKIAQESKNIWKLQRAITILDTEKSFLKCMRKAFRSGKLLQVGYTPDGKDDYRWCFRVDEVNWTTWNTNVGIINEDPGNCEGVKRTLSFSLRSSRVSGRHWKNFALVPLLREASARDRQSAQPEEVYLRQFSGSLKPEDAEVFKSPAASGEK
Outline: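 CHO K1 cells stably expressing VR1, loaded with Fluo-4 (2 μM, 30 min, 37° C); peak Ca²⁺ fluorescence read on FLIPR. Compound (10 μM) added first, agonism as % of 10 μM capsaicin signal; after 5 min, 100 nM capsaicin added, % inhibition calculated relative to maximal inhibition with 10 μM capsaicin.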

For `COc1cccc(C2=NOC3(CCN(C(=O)/C=C/c4ccc(C(F)(F)F)nc4)CC3)C2)c1` [Compound 362, (E)-1-(3-(3-methoxyphenyl)-1-oxa-2,8-diazaspiro[4.5]dec-2-en-8-yl)-3-(6-(trifluoromethyl)pyridin-3-yl)prop-2-en-1-one], the inhibition at 10 µM [1] was 44%, the activation at 10 µM [1] was -1% and the inhibition at 10 µM (vanilloid receptor (VR1)) was 19%. For the same compound, the activation at 10 µM (vanilloid receptor (VR1)) was 0%.
Compound `O=C(C#Cc1ccc(C(F)(F)F)cc1)N1CCC2(CC1)CC(c1ccccc1)=NO2` [Compound 363, 1-(3-phenyl-1-oxa-2,8-diazaspiro[4.5]dec-2-en-8-yl)-3-(4-(trifluoromethyl)phenyl)prop-2-yn-1-one] has an inhibition at 10 µM [1] of 81%, an activation at 10 µM [1] of 0% and an inhibition at 10 µM (vanilloid receptor (VR1)) of 30%. The activation at 10 µM (vanilloid receptor (VR1)) was 0%.
With `CC1CN(C(=O)Nc2ccc(C(C)(C)C)cc2)CCC12CC(c1ccccc1F)=NO2` (stereo not drawn) [Compound 364, N-(4-tert-butylphenyl)-3-(2-fluorophenyl)-6-methyl-1-oxa-2,8-diazaspiro[4.5]dec-2-ene-8-carboxamide] the inhibition at 10 µM [1] was 106%, the activation at 10 µM [1] was 4% and the inhibition at 10 µM (vanilloid receptor (VR1)) was 50%. For the same compound, the activation at 10 µM (vanilloid receptor (VR1)) was -1%.
In the case of `O=C(/C=C/c1ccc(C(F)(F)F)nc1N1CCCCC1)N1CCC2(CC1)CC(c1cccc(F)c1)=NO2` [Compound 365, (E)-1-(3-(3-fluorophenyl)-1-oxa-2,8-diazaspiro[4.5]dec-2-en-8-yl)-3-(2-(piperidin-1-yl)-6-(trifluoromethyl)pyridin-3-yl)prop-2-en-1-one], the inhibition at 10 µM [1] is reported as 94%, the activation at 10 µM [1] is reported as 0% and the inhibition at 10 µM (vanilloid receptor (VR1)) is reported as 74%. The activation at 10 µM (vanilloid receptor (VR1)) was -1%.
With `CC(C(=O)N1CCC2(CC1)CC(c1cccc(F)c1)=NO2)c1ccc(NS(C)(=O)=O)c(F)c1` (stereo not drawn) [Compound 366, N-(2-fluoro-4-(1-(3-(3-fluorophenyl)-1-oxa-2,8-diazaspiro[4.5]dec-2-en-8-yl)-1-oxopropan-2-yl)phenyl)methanesulphonamide] the inhibition at 10 µM [1] was 29%, the activation at 10 µM [1] was 0% and the inhibition at 10 µM (vanilloid receptor (VR1)) was -20%. The activation at 10 µM (vanilloid receptor (VR1)) was -1%.
With `CC1CN(C(=O)/C=C/c2ccc(C(F)(F)F)nc2N2CCCCC2)CCC12CC(c1ccccc1)=NO2` (stereo not drawn) [Compound 367, (E)-1-(6-methyl-3-phenyl-1-oxa-2,8-diazaspiro[4.5]dec-2-en-8-yl)-3-(2-(piperidin-1-yl)-6-(trifluoromethyl)pyridin-3-yl)prop-2-en-1-one] the inhibition at 10 µM [1] was 96%, the activation at 10 µM [1] was -1% and the inhibition at 10 µM (vanilloid receptor (VR1)) was 93%. It also gave an activation at 10 µM (vanilloid receptor (VR1)) of 0%.
`CC(C)(C)c1ccc(/C=C/C(=O)N2CCC3(CC2)CC(c2ccccc2)=NO3)c(Br)c1` [Compound 368, (E)-3-(2-bromo-4-tert-butylphenyl)-1-(3-phenyl-1-oxa-2,8-diazaspiro[4.5]dec-2-en-8-yl)prop-2-en-1-one] gave an inhibition at 10 µM [1] of 83%, an activation at 10 µM [1] of 0% and an inhibition at 10 µM (vanilloid receptor (VR1)) of 66%. It also gave an activation at 10 µM (vanilloid receptor (VR1)) of 0%.
`CC1CN(C(=O)Nc2ccc(C(C)(C)C)cc2)CCC12CC(c1ccccc1)=NO2` (stereo not drawn) [Compound 369, N-(4-tert-butylphenyl)-6-methyl-3-phenyl-1-oxa-2,8-diazaspiro[4.5]dec-2-ene-8-carboxamide] showed an IC50 [1] of 175 nM, an inhibition at 10 µM [1] of 110% and an activation at 10 µM [1] of 0%. It also gave an inhibition at 10 µM (vanilloid receptor (VR1)) of 19%, an activation at 10 µM (vanilloid receptor (VR1)) of -1% and an IC50 (vanilloid receptor (VR1); capsaicin (CAP) stimulus, average) of 1070 nM.
In the case of `CC(C)(C)c1ccc(NC(=O)N2CCC3(CC(c4ccccc4)=NO3)C2)cc1` (stereo not drawn) [Compound 371, N-(4-tert-butylphenyl)-3-phenyl-1-oxa-2,7-diazaspiro[4.4]non-2-ene-7-carboxamide], the inhibition at 10 µM [1] is reported as 99%, the activation at 10 µM [1] is reported as 35% and the inhibition at 10 µM (vanilloid receptor (VR1)) is reported as 12%. For the same compound, the activation at 10 µM (vanilloid receptor (VR1)) was 1%.
Work on `COc1cc(C2=NOC3(CCN(C(=O)Nc4ccc(C(C)(C)C)cc4)CC3)C2)ccc1Cl` [Compound 378, N-(4-tert-butylphenyl)-3-(4-chloro-3-methoxyphenyl)-1-oxa-2,8-diazaspiro[4.5]dec-2-ene-8-carboxamide] yielded an inhibition at 10 µM [1] of 99%, an activation at 10 µM [1] of 33% and an inhibition at 10 µM (vanilloid receptor (VR1)) of 81%. For the same compound, the activation at 10 µM (vanilloid receptor (VR1)) was 42%.
In the case of `CC(C)(C)c1ccc2[nH]c(N3CCC4(CC3)CC(c3ccccc3)=NO4)nc2c1` [Compound 379, 8-(5-tert-butyl-1H-benzimidazol-2-yl)-3-phenyl-1-oxa-2,8-diazaspiro[4.5]dec-2-ene], the melting point is reported as 230 to 236 °C.
Compound `CC1CN(C(=O)Nc2ccc(C(F)(F)F)cc2)CCC12CC(c1ccccc1)=NO2` (stereo not drawn) [Compound 385, 6-methyl-3-phenyl-N-(4-(trifluoromethyl)phenyl)-1-oxa-2,8-diazaspiro[4.5]dec-2-ene-8-carboxamide] has an IC50 [1] of 59.8 nM, an inhibition at 10 µM [1] of 77% and an activation at 10 µM [1] of 1%. For the same compound, the inhibition at 10 µM (vanilloid receptor (VR1)) was 18% and the activation at 10 µM (vanilloid receptor (VR1)) was -2%.
